Test systems include NCI-H522; RPMI-8226; SN12C; NCI-H460; M14; TK-10; ACHN; IGROV-1; UO-31; CAKI-1; COLO 205; EKVX; HCT-15; NCI/ADR-RES; HCT-116; KM12; HOP-62; A549.
Assay in all cases: NCI tumour cell line growth inhibition, 48 h

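Method: 48-hour compound exposure of cells in 96-well plates, five concentrations, linear interpolation of endpoints. GI50: concentration for 50% inhibition of growth.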 Activity calls are given as the source filed them. Rule as the data show it: active = GI50 up to about 1.1 µM and inactive = higher.

As for `CC1Oc2c(c(O)cc3oc(=O)cc(-c4ccccc4)c23)C(=O)C1C` (stereo unspecified), the GI50 in the assay with NCI-H522, in the assay with RPMI-8226, in the assay on SN12C, in the assay on NCI-H460, with M14 and with TK-10 was > 100 µM (inactive) throughout. Further, the GI50 in the assay on ACHN, in the assay with IGROV-1, in the assay on UO-31, in the assay with CAKI-1, in the assay with COLO 205 and in the assay with EKVX was > 100 µM (inactive) in each case. In the assay on HCT-15, this compound yielded a GI50 above 100 µM.

Regarding `O=P1(c2ccccc2)Nc2ccccc2SSc2ccccc2N1`, the GI50 with NCI-H522 is 15.1 µM (inactive); with RPMI-8226, 18.3 µM (inactive); in the assay on SN12C it was 17.8 µM (inactive); with NCI-H460 it was 18.4 µM (inactive); in the assay with NCI/ADR-RES it was 19.9 µM (inactive); with HCT-116, 16.8 µM (inactive). Moreover, the GI50 in the assay with IGROV-1 was 19.7 µM (inactive); with UO-31 it was 14.1 µM (inactive); in the assay with CAKI-1, 18.2 µM (inactive); with KM12, 16.7 µM (inactive); in the assay on HOP-62, > 10 µM (inactive); with COLO 205 it was 20 µM (inactive). Moreover, the GI50 is 15.2 µM (inactive) in the assay with EKVX, 19.6 µM (inactive) in the assay with A549 and 17 µM in the assay with HCT-15.

As for `O=C(OCc1ccccc1)C(Cc1ccccc1)N(Cc1ccccc1)Cc1ccccc1` (stereo unspecified), the GI50 was 25.7 µM (inactive) in the assay on NCI-H522; 37.1 µM (inactive) in the assay with RPMI-8226; 53 µM (inactive) with SN12C; 35.1 µM (inactive) in the assay with NCI-H460; 24.1 µM (inactive) in the assay with HCT-116; > 100 µM (inactive) with M14. For the same compound, the GI50 with TK-10 is > 100 µM (inactive); in the assay with ACHN, 19.5 µM (inactive); with IGROV-1, > 100 µM (inactive); in the assay on UO-31 it was 59 µM (inactive); with CAKI-1, > 100 µM (inactive); in the assay with KM12 it was > 100 µM (inactive). The GI50 is > 100 µM (inactive) in the assay on HOP-62; > 100 µM (inactive) in the assay with COLO 205; > 100 µM (inactive) in the assay with EKVX; 65.9 µM (inactive) with A549; 43.7 µM with HCT-15.

On to `CN(C)CCNC(=O)c1cc(Cl)cc2ccc(-c3ccccc3)nc12`, for which the GI50 is 5.37 µM (inactive) with NCI-H522; 1.85 µM (inactive) with RPMI-8226; 3.02 µM (inactive) in the assay on SN12C; 2 µM (inactive) in the assay with NCI-H460; 2.51 µM (inactive) with NCI/ADR-RES; 2.18 µM (inactive) in the assay on HCT-116. Also, the GI50 was 3.18 µM (inactive) with IGROV-1; 1.91 µM (inactive) with UO-31; 2.04 µM (inactive) in the assay on CAKI-1; 4.84 µM (inactive) in the assay on KM12; 3.13 µM (inactive) with HOP-62; 1.6 µM (inactive) in the assay on COLO 205. The GI50 is 5.12 µM (inactive) with EKVX, 2.87 µM (inactive) with A549 and 2.85 µM in the assay with HCT-15.

Consider `C=CCC(O[Si](C)(C)C(C)(C)C)c1cc(O[Si](C)(C)C(C)(C)C)ccc1OC` (stereo unspecified), for which the GI50 was > 100 µM (inactive) in the assay on RPMI-8226; > 87.3 µM (inactive) with SN12C; > 70 µM (inactive) in the assay with NCI-H460; > 64.7 µM (inactive) in the assay on NCI/ADR-RES; > 80.7 µM (inactive) with HCT-116; > 100 µM (inactive) in the assay with IGROV-1. Further, the GI50 in the assay with UO-31 is > 82 µM (inactive); with CAKI-1, 40.7 µM (inactive); with KM12, > 100 µM (inactive); in the assay with HOP-62, > 100 µM (inactive); in the assay with COLO 205 it was > 83 µM (inactive); in the assay with EKVX it was > 100 µM (inactive). Further, the GI50 with A549 was > 64.1 µM (inactive); in the assay on HCT-15, above 74.5 µM.

With `CN1CCN(c2cc(-c3cc4ccccc4o3)oc(=O)c2C#N)CC1`, the GI50 in the assay with RPMI-8226 is 75.5 µM (inactive); in the assay on SN12C, 53.3 µM (inactive); in the assay with NCI-H460, 58.1 µM (inactive); with HCT-116 it was 77.1 µM (inactive); in the assay on M14, > 100 µM (inactive); in the assay with TK-10, 59.4 µM (inactive). The GI50 is 59 µM (inactive) in the assay on ACHN; 88.9 µM (inactive) in the assay with IGROV-1; > 100 µM (inactive) in the assay on UO-31; 36.1 µM (inactive) in the assay on CAKI-1; 99.3 µM (inactive) in the assay with KM12; 66.5 µM (inactive) with COLO 205. The GI50 in the assay with EKVX was 45.8 µM (inactive); in the assay on A549, 70.8 µM (inactive); with HCT-15, 99.8 µM.

For `NC1=C(C(=O)O)C(=O)C(Nc2c(O)cccc2C(=O)O)=CC1=O`, the GI50 in the assay on NCI-H522 is > 100 µM (inactive); in the assay on RPMI-8226, > 100 µM (inactive); in the assay on SN12C it was > 100 µM (inactive); in the assay on NCI-H460, 10 µM (inactive); in the assay with HCT-116, > 100 µM (inactive); in the assay on M14, 45.4 µM (inactive). Moreover, the GI50 with TK-10, with ACHN, with IGROV-1, in the assay with UO-31, in the assay with CAKI-1 and in the assay with KM12 was > 100 µM (inactive) each time. The GI50 in the assay with HOP-62 was > 100 µM (inactive); with COLO 205, > 100 µM (inactive); in the assay with EKVX it was > 100 µM (inactive); with A549, > 100 µM (inactive); with HCT-15, above 100 µM.

`COC(=O)C1=C(C)N2CCOC2(C)C(C(=O)OC)C1c1ccc[nH]1` (stereo unspecified): the GI50 in the assay with RPMI-8226, in the assay with NCI-H460, in the assay with HCT-116, in the assay with M14, in the assay on TK-10 and in the assay with ACHN was > 100 µM (inactive) in each case. The GI50 with IGROV-1, in the assay with UO-31, in the assay on CAKI-1, with KM12, in the assay on HOP-62 and with COLO 205 was > 100 µM (inactive) each time. For the same compound, the GI50 in the assay on EKVX and in the assay with A549 was > 100 µM (inactive) each time.

As for `Cc1cc(C)cc(Sc2c([N+](=O)[O-])ncn2C)c1`, the GI50 was 6.64 µM (inactive) in the assay with NCI-H522; 9.98 µM (inactive) in the assay on RPMI-8226; 16.4 µM (inactive) in the assay on SN12C; 18.2 µM (inactive) in the assay on NCI-H460; 13.8 µM (inactive) in the assay with HCT-116; 14 µM (inactive) with M14. Moreover, the GI50 with TK-10 is 23 µM (inactive); in the assay with ACHN, 26.2 µM (inactive); with IGROV-1, 20.8 µM (inactive); with UO-31, 13.7 µM (inactive); with CAKI-1, 25.9 µM (inactive); in the assay on KM12 it was 18.9 µM (inactive). In addition, the GI50 with HOP-62 was > 100 µM (inactive); in the assay with COLO 205, 12.4 µM (inactive); in the assay with EKVX it was 27.7 µM (inactive); in the assay with A549, 26.6 µM (inactive).

As for `Cc1cc(C)nc(NS(=O)(=O)c2ccc(Nc3c4ccccc4nc4c(C(=O)N5CCN(CCOS(C)(=O)=O)CC5)cccc34)cc2)n1`, the GI50 in the assay on RPMI-8226 is > 100 µM (inactive); in the assay with SN12C it was > 100 µM (inactive); with NCI-H460, 84.9 µM (inactive); in the assay with HCT-116, > 100 µM (inactive); in the assay with M14, > 100 µM (inactive); with TK-10 it was > 100 µM (inactive). In addition, the GI50 in the assay on ACHN, with IGROV-1, with UO-31, in the assay on CAKI-1, in the assay on KM12 and in the assay on HOP-62 was > 100 µM (inactive) in each case. The figures for the GI50 in the assay on COLO 205, in the assay with A549 and in the assay with HCT-15 were > 100 µM (inactive), > 100 µM (inactive) and above 100 µM, respectively.

For `Cc1ccc(S(=O)(=O)N(CC(=O)O)c2ccccc2)cc1`, the GI50 with NCI-H522, in the assay on RPMI-8226, in the assay on SN12C, in the assay with NCI-H460, with M14 and with TK-10 was > 100 µM (inactive) in each case. The GI50 with ACHN, in the assay with IGROV-1, with UO-31, with CAKI-1, with KM12 and in the assay with COLO 205 was > 100 µM (inactive) throughout. Moreover, the GI50 in the assay on EKVX is > 100 µM (inactive); in the assay on A549, > 100 µM (inactive); in the assay with HCT-15, above 100 µM.

Regarding `COc1cccc(C2C(C(=O)O)=C(CO)Oc3cc4c(cc32)OCO4)c1OC` (stereo unspecified), the GI50 in the assay with NCI-H522, in the assay with RPMI-8226, with SN12C, with NCI-H460, in the assay on M14 and in the assay with TK-10 was > 100 µM (inactive) in each case. Further, the GI50 in the assay with ACHN, in the assay with IGROV-1, with UO-31, with CAKI-1, with COLO 205 and with EKVX was > 100 µM (inactive) in each case. This compound displayed a GI50 in the assay on HCT-15 above 100 µM.

With `C=C1C(=O)O[C@H]2[C@H]1[C@@H](OC(=O)C=C(C)C)CC1=C[C@@H](C[C@@]3(C)O[C@@H]23)OC1=O`, the GI50 in the assay with NCI-H522 is 1.16 µM (inactive); in the assay on SN12C, 4.54 µM (inactive); in the assay on NCI/ADR-RES, 2.17 µM (inactive); in the assay with HCT-116, 3.4 µM (inactive); in the assay with IGROV-1, 10.8 µM (inactive); in the assay with UO-31, 7.74 µM (inactive). Besides, the GI50 in the assay on CAKI-1 was 3.14 µM (inactive); in the assay with KM12, 5.74 µM (inactive); in the assay with HOP-62 it was 27.9 µM (inactive); in the assay with EKVX, 4.23 µM (inactive); in the assay with A549 it was 22 µM (inactive); in the assay on HCT-15, 1.93 µM.
